Laboratory results published in US20060167106A1, “Compounds acting at the centrosome” (priority 2004, published 2006).
“Also recorded” adds a separate entry of the source.

Tests used:
[1] = tested on: CRL-2261 (non-Hodgkin's lymphoma); assay: Viability and cell growth of CRL-2261 cells; assay type: cell-based; conditions: for Total cells (×10^6): CRL-2261, 36 hour treatment; for Total cells (×10^7): CRL-2261, 48 hour treatment
Procedure: The viability and cell growth of two lymphoma cell lines, CRL-2261 (non-Hodgkin's lymphoma) and U937 (histiocytic lymphoma), were assayed following treatment with Compound 1 for 36-48 hours. Viability of the cells was determined using a kit from Molecular Probes (Eugene, Oreg.) that labels live cells green (calcein AM) and dead cells red (ethidium homodimer) according to manufacturer's instructions. Fluorescence of calcein and ethidium homodimer in cells was imaged using standard filters for FITC and Texas Red, respectively, with the Nikon TE300 microscope/digital imaging system.

Hsp70 = Hsp70 Western blotting in MDA-435 cells; assay type: cell-based; conditions: 0.5 μM; for percentage change in Hsp70 expression relative to DMSO control: normalized to background and GAPDH
Procedure: Calculations of the percentage changes were made by using the automated band analysis tools of the Kodak 1D (v.3.6.3) program. Band intensities were normalized to background and GAPDH.
MDA-435 breast cancer cells were grown in 100 mm plastic-tissue culture dishes and treated for 6 and 24 hours with 0.5 μM Taxol, Compound 1, Taxol+Compound 1, MG132, ALLN, or DMSO. After treatment, cells were washed in PBS and cell lysates were prepared by adding 100 μL of lysis buffer, which contained 20 mM Tris-HCl (pH 7.5), 150 mM NaCl, 1 mM Na2EDTA, 1 mM EGTA, 1% Triton, 2.5 mM sodium pyrophosphate, 1 mM β-glycerophosphate, 1 mM Na3VO4 and 1 μg/ml leupeptin (Cell Signaling Technology, Beverly, Mass.) supplemented with 1 mM PMSF (Sigma, St. Louis, Mo.) immediately before use, on ice for 1 hour. After scraping, the lysates were cleared by centrifugation at 13,000 RPM for 10 minutes at 4° C. Protein content was determined using a Bradford assay and bovine serum albumin as a standard (Bio-Rad Laboratories, Hercules, Calif.). Samples were solubilized by boiling in SDS sample buffer and subjected to SDS-PAGE. The proteins were subsequently transferred to a PVDF membrane (Bio-Rad, Hercules, Calif.). After blocking with 5% nonfat milk in TBS for 1 hour, the blots were incubated with a mouse monoclonal anti-Hsp70 antibody, which is specific for the inducible form of Hsp70 (Clone C92F3A-5, 1:1000 dilution, Stressgen Biotechnologies Corp., Victoria, B.C., Canada) or a rabbit polyclonal anti-GAPDH antibody (1:2000 dilution, Abcam, Cambridge, Mass.) for 2 hours at room temperature. The horseradish-peroxidase-conjugated secondary antibodies, anti-mouse horse radish peroxidase, (1:2000, Bio-Rad, Hercules, Calif.) and goat anti-rabbit polyclonal horse radish peroxidase (1:2000, Abcam, Cambridge, Mass.)) were diluted in blocking buffer and incubated with the blot for 1 hour at room temperature. The secondary antibodies were detected by enhanced chemiluminescence (ECL, Amersham Biosciences, Piscataway, N.J.) and imaged using a Kodak 440 Image Station.

[2] = tested on: MDA-435 breast cancer cells; assay: Multi-ubiquitin Western blotting in MDA-435 cells; assay type: cell-based; conditions: for increase of ubiquitinated proteins of the cell lysates: 500 nM
Procedure: Louis, Mo.) immediately before use, on ice for 1 hour. After scraping, the lysates were cleared by centrifugation at 13,000 RPM for 10 minutes at 4° C. Protein content was determined using a Bradford assay and bovine serum albumin as a standard (Bio-Rad Laboratories, Hercules, Calif.). Samples were solubilized by boiling in SDS sample buffer and subjected to SDS-PAGE. The proteins were subsequently transferred to a PVDF membrane (Bio-Rad, Hercules, Calif.). […] The alkaline phosphatase-conjugated secondary antibodies (Invitrogen, Carlsbad, Calif.) were diluted in blocking buffer and incubated with the blot for 1 hour at room temperature. The secondary antibodies were detected by the Western Breeze Chemiluminescent Kit (Invitrogen, Carlsbad, Calif.) and imaged using a Kodak 440 Image Station. Proteins targeted for degradation by the ubiquitin-dependent proteolytic pathway are tagged with multi-ubiquitin molecules. […] In this assay, accumulation of multi-ubiquitinated proteins in the cells is indicative of the impairment of proteasome activity.

Aurora-A kinase = molecular target: T1, Aurora-A kinase (Homo sapiens, UniProt O14965); assay: Aurora-A Kinase Assay (ELISA, Lats2 phosphorylation); assay type: biochemical; conditions: 50 nM to 50 μM
T1 construct: purchased MBL International (CycLex)
T1 sequence (O14965 1-403): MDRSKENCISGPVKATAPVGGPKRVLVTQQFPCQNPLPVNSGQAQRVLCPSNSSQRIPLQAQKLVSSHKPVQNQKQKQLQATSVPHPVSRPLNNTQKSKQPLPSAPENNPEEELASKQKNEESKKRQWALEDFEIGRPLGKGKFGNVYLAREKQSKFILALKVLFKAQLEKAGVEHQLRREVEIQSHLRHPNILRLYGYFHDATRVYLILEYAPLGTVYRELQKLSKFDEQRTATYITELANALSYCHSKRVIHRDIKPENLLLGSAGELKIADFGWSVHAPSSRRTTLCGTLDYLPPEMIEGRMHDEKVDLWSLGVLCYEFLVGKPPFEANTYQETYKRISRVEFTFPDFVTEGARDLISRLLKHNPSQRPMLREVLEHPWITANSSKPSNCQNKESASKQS
Procedure: In the assay, the amount of phosphorylated substrate is measured by binding to ST-3B11, an anti-phospho-Lats2 serine83 monoclonal antibody, subsequently incubating with horseradish peroxidase-conjugated anti-mouse IgG, which then catalyzes the conversion of the chromogenic substrate tetra-methylbenzidine (TMB) from a colorless solution to a blue solution. The color is then quantified by spectrophotometry, which reflects the relative amount of Aurora-A activity in the sample.
The assay was then performed according to the manufacturer's instructions using 40 Units/well of recombinant Aurora A enzyme. In the ‘enzyme control’ Aurora A enzyme and the ‘ATP minus control’, ATP was omitted from the reaction mixture. […] The color was quantified using a spectrophotometer (Perkin Elmer HTS 7000 Bio Assay Reader) at 450/535 nm wavelengths.

CV-1 cells = assay: Cell morphology, time-lapse imaging of CV-1 cells; assay type: cell-based, monkey; conditions: 500 nM
Procedure: CV-1 cells and CHO cells were previously cultured in 2-well chambered cover-slips for 48 hours and incubated in 15 mM HEPES buffer-containing Ham's F-12/DMEM medium with different compounds. The cells were imaged using phase contrast settings with the Nikon TE300 microscope/digital imaging system. The cells were imaged ‘simultaneously’ under control of MetaVue software by capturing frames for cells from different conditions at the same time period using a motorized automated XYZ stage.
[…] […] A very low concentration of Taxol (10 nM) was used.

[3] = tested on: bovine microtubule-associated protein (MAP)-free tubulin; assay: Tubulin Polymerization Assay (MAP-free tubulin); assay type: biochemical
Procedure: For in vitro tubulin polymerization assays, lyophilized bovine microtubule-associated protein (MAP)-free tubulin and PEM buffer (80 mM Na-PIPES (pH 6.9), 1 mM MgCl2, 1 mM EGTA) were purchased from Cytoskeleton (Denver, Colo.). MAP-free tubulin (1.5 mg/ml) was incubated with the test compounds, 0.5 μM Compound 1, 3 μM Taxol, 0.5 μM Compound 1+3 μM Taxol or 0.5 μM Compound 1+30 nM Taxol in PEM-0.3% DMSO. Absorbance at 340 nm was measured every minute for 60 min at 37° C. using a Perkin Elmer HTS 7000 spectrophotometer.

SMILES: CN(NC(=O)CC(=O)NN(C)C(=S)c1ccccc1)C(=S)c1ccccc1 [Compound 1]
- cell death / growth inhibition of CRL-2261 cells ([1]; 36-48 hours): significant cell death of CRL-2261 cells; also recorded: more significantly inhibited than growth of U937 cells
- Total cells (×10^6) ([1]; 500 nM): 0.69 ×10^6
- Total cells (×10^6) ([1]; 5000 nM): 0.75 ×10^6
- Total cells (×10^7) ([1]; 0.5 nM): 1.32 ×10^7
- Total cells (×10^7) ([1]; 5 nM): 1.11 ×10^7
- Total cells (×10^7) ([1]; 50 nM): 0.26 ×10^7
- Total cells (×10^7) ([1]; 500 nM): 0.14 ×10^7
- Total cells (×10^7) ([1]; 5000 nM): 0.16 ×10^7
- induction of Hsp70 expression (Hsp70; 6 and 24 hours): strongly induced Hsp70 expression
- percentage change in Hsp70 expression relative to DMSO control (Hsp70; 6 hours of treatment): 980%
- percentage change in Hsp70 expression relative to DMSO control (Hsp70; 24 hours of treatment): 2121%
- accumulation of ubiquitinated proteins / level of proteasome inhibition compared with Velcade ([2]; 0.5 μM Compound 1 versus Velcade 500 nM (and 5 nM), Western blot): significantly less accumulation of ubiquitinated proteins in cultured cells than Velcade; also recorded: below that of the positive control
- increase of ubiquitinated proteins of the cell lysates ([2]; 6 hours of treatment in cell culture): 210.03
- increase of ubiquitinated proteins of the cell lysates ([2]; 24 hours of treatment in cell culture): 243.11
- accumulation of multi-ubiquitinated proteins ([2]; MDA-435 cells, 0.5 μM, 6 and 24 hours): induced the accumulation of multi-ubiquitinated proteins
- inhibition of the phosphorylation of Lats2 by Aurora-A kinase (Aurora-A kinase): did not inhibit the phosphorylation of Lats2 by Aurora-A kinase
- changes in the shape of the cell (CV-1 cells; CV-1 cell, 4 hours): shrinkage of cell body relative to FIG. 19D
- changes in the shape of live cells (CV-1 cells; CV-1 cells, 4 hours): shrinkage of cell bodies
- beginning of cell shrinkage after treatment (CV-1 cells; non-transfected CV-1 cells): 1.5 h
- effect on the kinetics of tubulin polymerization ([3]; 0.5 μM): no effect on the kinetics of tubulin polymerization
- influence on the effect of Taxol on tubulin polymerization ([3]; 0.5 μM Compound 1 with 3 μM or 30 nM Taxol): did not influence the effect of either high dose (3 μM) or low dose (30 nM) of Taxol on tubulin polymerization
